Structures are written as SMILES. In brackets after ≈: the same amount, converted by molar mass. Starred links: 1 amine or outer side, 2 acyl side, 3 side chain; linkers in the order of their positions; H or OH if unused. Positions of bridges follow the written chain, without caps; N, C: chain ends. Non-standard residues stand in square brackets, D forms with d. Residues, ends and D or L forms follow the SMILES beside them. Chains are numbered I, II in the order given. Actinocin(1to9) = Cc1c2oc3c(C)ccc(C(=O)[*:2])c3nc-2c(C(=O)[*:1])c(N)c1=O; NMeV = CN[C@H](C(=O)O)C(C)C; Sar = CNCC(=O)O

Data on three compounds can be found in ChEMBL document CHEMBL1150912, “A new taxane diterpenoid from Taxus mairei” (J Nat Prod, 1998).

A short description of assay [1]: Cytotoxicity against human Hep3B cells after 3 days by methylene blue assay. Format: functional, cell-based, Hep 3B2. Conditions: 72 h.
The next assay has as its system HeLa. The experiment in a line: Cytotoxicity against human HeLa cells after 3 days by methylene blue assay. It is filed as functional, cell-based. The note with it: 72 h.

Usually IC50 stands for the concentration that gives 50% inhibition. Read a high IC50 as weaker potency. In the case of `Cc1c2oc3c(C)ccc(C(=O)N[C@@H]4C(=O)N[C@H](C(C)C)C(=O)N5CCC[C@H]5C(=O)N(C)CC(=O)N(C)[C@@H](C(C)C)C(=O)O[C@@H]4C)c3nc-2c(C(=O)N[C@@H]2C(=O)N[C@H](C(C)C)C(=O)N3CCC[C@H]3C(=O)N(C)CC(=O)N(C)[C@@H](C(C)C)C(=O)O[C@@H]2C)c(N)c1=O` [DACTINOMYCIN] (I: T[dV]P[Sar][NMeV] / II: T[dV]P[Sar][NMeV]; ester I:1-I:C, II:1-II:C; linker I:N-II:N via Actinocin(1to9)), the half-inhibitory concentration (IC50) (in assay [1]; in the assay with HeLa) was 0.01 µg/mL (≈ 0.00797 µM) in each case.
As to `CO[C@@]12[C@H](COC(N)=O)C3=C(C(=O)C(C)=C(N)C3=O)N1C[C@@H]1N[C@@H]12` [MITOMYCIN], the half-maximal inhibitory concentration (IC50) (in assay [1]; in the assay with HeLa) was 0.01 µg/mL (≈ 0.0299 µM) each time.
Regarding `CC(=O)O[C@H]1[C@@H]2[C@]3(OC(C)=O)CO[C@@H]3C[C@H](O)[C@@]2(C)[C@@H](OC(=O)c2ccccc2)[C@H](O)C2=C(C)[C@@H](O)C[C@]21C(C)(C)O` [TAXUMAIROL K], the IC50 was determined as 40 µg/mL (≈ 68 µM) in assay [1] and 9.2 µg/mL (≈ 15.6 µM) in the assay on HeLa.
